Drawing on ChEMBL document CHEMBL1137609, “Low-calcemic, highly antiproliferative, 23-oxa ether analogs of the natural hormone 1 alpha,25-dihydroxyvitamin D3: design, synthesis, and preliminary biological evaluation” (J Med Chem, 2007), this text covers logD and Activity for 9 compounds.

Broadly, the logD is lipophilicity at a set pH, counting ionised and neutral species. Higher therefore signals higher lipophilicity.

Structures are written as SMILES. Active and inactive are the calls of the source. The calls are words filed in the database; no cut-off is given here.

A short description of data set [1]: Lipophilicity, log D of the compound. It counts as physicochemical. To be noted: octanol/water.
For data set [2], the system named is Mus musculus. The data set can be described thus: Induction of TRPV6 mRNA transcriptional activity in C57BL/6 mouse duodenum at 3 ug/kg, ip after 4 hrs. The class given is functional, organism-based.
In data set [3] the test system is Mus musculus. The data set can be described thus: Induction of CYP24 mRNA transcriptional activity in C57BL/6 mouse duodenum at 3 ug/kg, ip after 4 hrs. It counts as functional, organism-based.
The test system of data set [4] is Mus musculus. Briefly: Induction of TRPV6 mRNA transcriptional activity in C57BL/6 mouse duodenum at 25 ug/kg, ip after 4 hrs. It counts as functional, organism-based.
In data set [5] the test system is Mus musculus. Briefly: Induction of CYP24 mRNA transcriptional activity in C57BL/6 mouse duodenum at 25 ug/kg, ip after 4 hrs. The class given is functional, organism-based.

In data set [1], `C=C(COC[C@@H](C)[C@H]1CC[C@H]2/C(=C/C=C3/C[C@@H](O)C[C@H](O)C3=C)CCC[C@]12C)c1ccccc1` returned a logD of 5.1. `C=C1/C(=C\C=C2/CCC[C@]3(C)[C@@H]([C@H](C)CCCC(C)(C)O)CC[C@@H]23)C[C@@H](O)C[C@@H]1O` [CALCITRIOL]: the outcome in the data set with Mus musculus [2] and with Mus musculus [3] was Active. The compound also returned a logD in data set [1] of 3.6.

For `C=C1/C(=C\C=C2/CCC[C@]3(C)[C@@H]([C@H](C)COCC(=C)C(C)(C)C)CC[C@@H]23)C[C@@H](O)C[C@@H]1O`, the outcome in the data set with Mus musculus [4] and in the data set with Mus musculus [5] was Active. This compound also showed a logD in data set [1] of 4.7. In the case of `C=C1/C(=C\C=C2/CCC[C@]3(C)[C@@H]([C@H](C)COCc4ccco4)CC[C@@H]23)C[C@@H](O)C[C@@H]1O`, in data set [1], the pH-dependent lipophilicity (logD) stood at 3.3. With `C=C1/C(=C\C=C2/CCC[C@]3(C)[C@@H]([C@H](C)COC/C=C/C(C)(C)C)CC[C@@H]23)C[C@@H](O)C[C@@H]1O`, in data set [1], the logD was determined as 4.9. `C=C1/C(=C\C=C2/CCC[C@]3(C)[C@@H]([C@H](C)COCC#CC(C)(C)C)CC[C@@H]23)C[C@@H](O)C[C@@H]1O`: the logD in data set [1] came out at 4.6. On to `C=C1/C(=C\C=C2/CCC[C@]3(C)[C@@H]([C@H](C)COCC(=C)C4(C)CCCCC4)CC[C@@H]23)C[C@@H](O)C[C@@H]1O`, for which, in data set [1], the logD stood at 5.3.

On to `C=C(COC[C@@H](C)[C@H]1CC[C@H]2/C(=C/C=C3/C[C@@H](O)C[C@H](O)C3=C)CCC[C@]12C)C1=CCCCC1(C)C`, for which the result in the data set on Mus musculus [4] and with Mus musculus [5] was Active. In data set [1], this compound gave a logD of 4.9. The compound `C=C1/C(=C\C=C2/CCC[C@]3(C)[C@@H]([C@H](C)COCc4ccccc4)CC[C@@H]23)C[C@@H](O)C[C@@H]1O` yielded a logD in data set [1] of 4.4.
